Assay [1] relates to MCF7. The assay is described as follows: Antiproliferative activity against human MCF7 cells by MTT assay. The format is functional, cell-based. In general terms: Formazan colour is commonly taken as a measure of viable cells.
The test system of another assay is NCI-H460. As to the kind of experiment: Antiproliferative activity against human NCI-H460 cells by MTT assay. The format is functional, cell-based.
Assay [2] deals with Mus musculus. As to the kind of experiment: Anticonvulsant activity in ip dosed scPTZ induced Kunming mouse seizure model. The format is functional.
In a further assay the test system is UO-31. As to the kind of experiment: Antiproliferative activity against human UO-31 cells assessed as inhibition of cell growth at 10 uM relative to control. The format is functional. The arrangement: scale not given: the % may be the effect or the level left.
Assay [3] concerns Mus musculus. As to the kind of experiment: Anticonvulsant activity in po dosed scPTZ induced mouse model measured after 4 hrs. The class given is functional.
Assay [4] relates to MCF7. The assay is described as follows: Antiproliferative activity against human MCF7 cells assessed as reduction in cell viability incubated for 72 hrs by MTT assay. The class given is functional, cell-based. The note with it: MCF7, 72 h.
The test system of assay [5] is A549. As to the kind of experiment: Antiproliferative activity against human A549 cells assessed as reduction in cell viability by MTT assay. The class given is functional, cell-based.
Assay [6] deals with A549. As to the kind of experiment: Antiproliferative activity against human A549 cells. The format is functional, cell-based.
The subject of assay [7] is Mus musculus. As to the kind of experiment: Anticonvulsant activity in ip dosed MES induced Kunming mouse seizure model. The class given is functional.
The test system of assay [8] is MCF7. The assay is described as follows: Cytotoxicity against human MCF7 cells assessed as reduction in cell growth. The format is functional, cell-based.
Assay [9] has as its system A549. As to the kind of experiment: Antiproliferative activity against human A549 cells assessed as reduction in cell viability measured for 24 hrs by MTT assay. The note with it: A549, 24 h.
Another assay deals with HepG2. The assay is described as follows: Antiproliferative activity against human HepG2 cells assessed as reduction in cell viability measured for 24 hrs by MTT assay. As to conditions: HepG2, 24 h.
Assay [10] has as its target T1, Retinoic acid receptor RXR-alpha (Homo sapiens, UniProt P19793).
T1 sequence (P19793 whole entry): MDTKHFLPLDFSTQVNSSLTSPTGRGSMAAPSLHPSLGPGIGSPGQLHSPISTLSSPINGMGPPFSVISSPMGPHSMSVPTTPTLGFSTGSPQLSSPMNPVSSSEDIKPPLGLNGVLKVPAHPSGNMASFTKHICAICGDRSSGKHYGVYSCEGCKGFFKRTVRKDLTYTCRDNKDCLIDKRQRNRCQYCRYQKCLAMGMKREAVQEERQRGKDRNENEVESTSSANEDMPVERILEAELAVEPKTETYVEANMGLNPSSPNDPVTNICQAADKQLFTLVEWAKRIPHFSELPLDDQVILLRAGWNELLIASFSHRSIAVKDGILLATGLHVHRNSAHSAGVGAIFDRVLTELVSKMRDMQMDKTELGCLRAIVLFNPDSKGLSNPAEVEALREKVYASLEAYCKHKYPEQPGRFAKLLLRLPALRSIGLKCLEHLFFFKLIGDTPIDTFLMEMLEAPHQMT
The assay is described as follows: Antagonist activity at RXRalpha (unknown origin) by Alpha Screen assay. (Bead proximity is the source of the signal in Alpha formats.)

Assay [11] has as its system MCF7. The assay is described as follows: Anticancer activity against human MCF7 cells assessed as reduction in cell growth measured after 3 days by MTT assay. The note with it: MCF7, 72 h. The class given is functional, cell-based.
The nature of assay [12]: Inhibition of Escherichia coli beta-glucuronidase.
The next assay deals with Cholinesterase (Equus caballus, UniProt P81908). As to the kind of experiment: Inhibition of equine serum BChE using butyrylthiocholine iodide as substrate measured after 15 mins by Ellman's method. In general terms: Ellman's reagent forms a yellow product with free thiols.
Assay [13] in a line: Antioxidant activity assessed as DPPH radical scavenging activity at 10 ug/ml. As to conditions: dose 10.0 µg/ml. The format is functional.

In general, IC50 refers to the concentration that inhibits the measured activity by half. Usually ED50 stands for the dose at which the effect has come halfway, by size or by number of responders. For orientation: EC50 means the concentration at which the effect is half-maximal.

Chain of Cholinesterase (P81908 whole entry): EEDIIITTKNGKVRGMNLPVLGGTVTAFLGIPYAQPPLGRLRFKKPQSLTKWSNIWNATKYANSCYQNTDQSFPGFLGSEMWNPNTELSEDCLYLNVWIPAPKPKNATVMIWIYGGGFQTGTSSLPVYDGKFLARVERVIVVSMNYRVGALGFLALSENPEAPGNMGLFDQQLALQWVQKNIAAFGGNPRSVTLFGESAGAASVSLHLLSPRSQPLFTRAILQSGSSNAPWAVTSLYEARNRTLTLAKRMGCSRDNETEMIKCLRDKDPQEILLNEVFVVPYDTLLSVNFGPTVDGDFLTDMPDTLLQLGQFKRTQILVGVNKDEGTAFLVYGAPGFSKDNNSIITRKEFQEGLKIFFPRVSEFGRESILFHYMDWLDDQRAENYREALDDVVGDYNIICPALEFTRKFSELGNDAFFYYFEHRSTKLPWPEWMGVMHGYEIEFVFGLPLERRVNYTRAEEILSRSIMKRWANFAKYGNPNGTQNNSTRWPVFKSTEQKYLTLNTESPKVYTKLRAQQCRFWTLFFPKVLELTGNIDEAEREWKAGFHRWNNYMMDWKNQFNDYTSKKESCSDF

Take `Cc1nc(-c2cccnc2)ccc1C(=O)NNC(=O)Nc1c(Cl)cc(Cl)cc1Cl`: the IC50 in the assay with MCF7 [1] and in the assay on NCI-H460 was 8890 nM each time.

The molecule `CCOC(=O)C1(NC(=O)NNc2ccc(F)cc2)CC1(C)C` (centres undefined) returned an ED50 in the assay with Mus musculus [2] of 9.2 mg/kg.

As to `Cc1nc(NC(=O)Nc2ccccc2)sc1C(=O)NNC(=O)Nc1ccccc1`, the Activity in the assay with UO-31 turned out to be 14.8%.

On to `CC1(C)CC12NC(=O)N(Nc1ccc(F)cc1)C2=O` (centres undefined), for which, in the assay on Mus musculus [3], the ED50 was found to be 61.8 mg/kg.

Turning to `COc1cc(NC(C)CCCNC(=O)NNC(=O)NOC(=O)c2ccccc2)c2ncccc2c1` (centres undefined), the IC50 with MCF7 [4] came to 1000 nM; in the assay on A549 [5] it was 4000 nM; in the assay on A549 [6], 1500 nM.

`COc1cc(C(=O)NN2C(=O)C(=O)N(Cc3ccccc3)C2=O)cc2c1OCCO2`: it took a dose of 13.7 mg/kg to reach the 50% effect level in the assay on Mus musculus [7] (ED50).

As for `CC1(C)CC12NC(=O)N(Nc1ccc([N+](=O)[O-])cc1[N+](=O)[O-])C2=O` (centres undefined), the ED50 in the assay on Mus musculus [3] is 126 mg/kg.

As to `O=C(NNC(=O)n1nnc2ccccc21)NOC(=O)c1ccccc1`, the IC50 in the assay with MCF7 [8] was 79000 nM.

As to `CCCCNC(=O)NNC(=O)c1ccc(Nc2nccc(-c3ccncc3)n2)cc1`, the IC50 was 8390 nM in the assay with A549 [9] and 2170 nM with HepG2. It took 1050 nM to reach a half-maximal effect in assay [10] (EC50).

`Cc1ccc(N(C(=O)CNN2C(=O)C(=O)N(C(C)C)C2=O)C2(C(N)=O)CCCCC2)cc1` yielded an ED50 in the assay with Mus musculus [7] of 44.5 mg/kg.

In the case of `O=C(NCCc1ccccc1)NNC(=O)n1nnc2ccccc21`, in the assay on MCF7 [8], the IC50 is 79000 nM.

The molecule `CCOC(=O)C1(NC(=O)NNc2ccc(F)c(Cl)c2)CC1(C)C` (centres undefined) gave an ED50 in the assay with Mus musculus [2] of 58.1 mg/kg.

In the case of `O=C(NNC(=O)n1nnc2ccccc21)NC(=O)c1ccccc1`, the IC50 with MCF7 [8] was found to be 79000 nM.

Consider `COc1cc(NC(C)CCCNC(=O)NNC(=O)/C=C/c2cc(OC)c(OC)c(OC)c2)c2ncccc2c1` (centres undefined), for which, in the assay with MCF7 [11], the IC50 amounted to 30 nM.

As to `COc1cc(NC(C)CCCNC(=O)NNC(=O)/C=C/c2ccc(Cl)cc2)c2ncccc2c1` (centres undefined), the IC50 in the assay with MCF7 [11] amounted to 30 nM.

In the case of `O=C(NO)NNC(=O)n1nnc2ccccc21`, the IC50 in the assay with MCF7 [8] was 79000 nM.

Consider `COc1cc(NC(C)CCCNC(=O)NNC(=O)/C=C/c2ccccc2)c2ncccc2c1` (centres undefined), for which the IC50 in the assay on MCF7 [11] is 30 nM.

`COc1ccc(CC(=O)NNC(=O)Nc2ccccc2OC)cc1` returned an IC50 in [12] of 16800 nM.

As to `Cc1nc(-c2cccnc2)ccc1C(=O)NNC(=O)Nc1ccc(F)cc1F`, the concentration for half-maximal inhibition (IC50) in the assay with MCF7 [1] and in the assay on NCI-H460 was 8890 nM throughout.

In the case of `CCCCCCCCCCCCCCCNC(=O)NNC(=O)c1ccc(C(F)(F)F)cc1`, the midpoint of inhibition at Cholinesterase, the IC50, lay at 58000 nM.

In the case of `COc1ccc(/C=C/C(=O)NNC(=O)NCCCC(C)Nc2cc(OC)cc3cccnc23)cc1` (centres undefined), the 50% inhibitory concentration (IC50) with MCF7 [11] turned out to be 30 nM.

For the molecule `COc1cc(NC(C)CCCNC(=O)NNC(=O)/C=C/c2cccc(C(F)(F)F)c2)c2ncccc2c1` (centres undefined), the IC50 in the assay with MCF7 [11] came out at 30 nM.

Turning to `CC1=N/C(=C\c2ccc(Cl)cc2)C(=O)N1NC(=O)N1c2ccccc2C=Cc2ccccc21`, the Activity in assay [13] came to 73.9%.

On to `CC1=N/C(=C\c2ccc([N+](=O)[O-])cc2)C(=O)N1NC(=O)N1c2ccccc2C=Cc2ccccc21`, for which the Activity in [13] was 73.9%.

For the molecule `COc1cc(NC(C)CCCNC(=O)NNC(=O)NC2CCCCC2)c2ncccc2c1` (centres undefined), the IC50 in the assay on MCF7 [4] was 1000 nM; in the assay on A549 [5] it was 4000 nM; in the assay with A549 [6], 1500 nM.

Take `COc1cc(NC(C)CCCNC(=O)NNC(=O)NCCc2ccccc2)c2ncccc2c1` (centres undefined): the IC50 with MCF7 [4] was 1000 nM; in the assay with A549 [5] it was 4000 nM; in the assay with A549 [6] it was 1500 nM.

As to `COc1cc(/C=C2\N=C(C)N(NC(=O)N3c4ccccc4C=Cc4ccccc43)C2=O)cc(OC)c1OC`, the Activity in [13] is 73.9%.

For `CC(C)(C)NC(=O)NNC(=O)c1ccc(Nc2nccc(-c3ccncc3)n2)cc1`, the IC50 amounted to 8390 nM with A549 [9] and 2170 nM in the assay on HepG2. Further, in [10], the midpoint of the response, the EC50, lay at 1050 nM.

With `COc1ccc(/C=C2\N=C(C)N(NC(=O)N3c4ccccc4C=Cc4ccccc43)C2=O)cc1`, the Activity in assay [13] was 73.9%.

Turning to `COc1cc(NC(C)CCCNC(=O)NNC(=O)NO)c2ncccc2c1` (centres undefined), the figures for the IC50 with MCF7 [4], in the assay with A549 [5] and in the assay on A549 [6] were 1000 nM, 4000 nM and 1500 nM, respectively.

The record behind these values is ChEMBL document CHEMBL6127051, “Hydrazinecarboxamides: Comprehensive review of their anticancer, anticonvulsive, anti-inflammatory, enzyme inhibition, antioxidant and other activities” (Eur J Med Chem, 2024).
